Laboratory results: ChEMBL document CHEMBL3259526, “(11)C-labeling and preliminary evaluation of vortioxetine as a PET radioligand” (Bioorg Med Chem Lett, 2014)

What was measured:
[1] = Drug uptake in Danish Landrace pig hippocampus at 124 MBq, iv after 90 mins by PET analysis; assay type: ADME, organism-based, Sus scrofa; conditions: in vivo, 1.5 h
[2] = Drug uptake in Danish Landrace pig cortex at 124 MBq, iv after 90 mins by PET analysis; assay type: ADME, organism-based, Sus scrofa; conditions: in vivo, 1.5 h
[3] = Drug uptake in Danish Landrace pig cerebellum at 124 MBq, iv after 90 mins by PET analysis; assay type: ADME, organism-based, Sus scrofa; conditions: in vivo, 1.5 h
[4] = Drug uptake in Danish Landrace pig brain at 124 MBq, iv after 60 mins by PET analysis; assay type: ADME, organism-based, Sus scrofa; conditions: in vivo, 1 h
[5] = Drug uptake in Danish Landrace pig thalamus at 124 MBq, iv after 90 mins by PET analysis; assay type: ADME, organism-based, Sus scrofa; conditions: in vivo, 1.5 h
[6] = Drug uptake in Danish Landrace pig striatum at 124 MBq, iv after 90 mins by PET analysis; assay type: ADME, organism-based, Sus scrofa; conditions: in vivo, 1.5 h
[7] = Plasma protein binding in pig plasma at 5 MBq after 2.5 hrs by equilibrium dialysis chamber method; assay type: ADME, cell-free, Sus scrofa; conditions: read-out: PPB (converted)

- Drug uptake [1]: Active
- Drug uptake [2]: Active
- Drug uptake [3]: Active
- Drug uptake [4]: Active
- Drug uptake [5]: Active
- Drug uptake [6]: Active
- fraction unbound at 2.5 h, 5 MBq [7]: 0.02
SMILES: Cc1ccc(Sc2ccccc2N2CCNCC2)c([11CH3])c1
